Source: US11000033B2, “Ketone or oxime compound, and herbicide” (NISSAN CHEMICAL CORPORATION, priority 2014, dated 2021)

Experiments:
Type in all cases: in vivo
Scirpus juncoides = experiment: Test Example 1: herbicidal activity, application before weed generation in submerged conditions (symbol B); settings: application herbicide amount 320 g/ha
In short: (§1)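 Ratings (5: ≥90%, near complete withering; 4: 70–<90%; 3: 40–<70%; 2: 20–<40%; 1: 5–<20%; 0: ≤5%) were assigned 3 weeks after the diluted emulsion was applied to the water surface of freshly sown, submerged pots.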

Cyperus difformis = experiment: Test Example 3: herbicidal effect by foliage application, Wagner pot (symbol E); settings: application herbicide amount 320 g/ha
In short: (§2)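 Herbicidal activity was rated three weeks after a foliar spray of diluted emulsion concentrate, applied at a predetermined dose to plants grown for 14 days from seed in waterlogged alluvial soil within a 25–30 °C greenhouse.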

Leptochloa chinensis = experiment: Test Example 3: herbicidal effect by foliage application, Wagner pot (symbol D); settings: application herbicide amount 320 g/ha
In short: as §2

Alopecurus myosuroides [1] = experiment: Test Example 5: herbicidal effect by foliage application, plastic box (symbol J); settings: 320 g/ha, 3 weeks after application
In short: (§3)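 Sowing in sterilized diluvial soil, 14 days' greenhouse growth at 25° C. to 30° C., then uniform small-sprayer foliar application of aqueous emulsion dilution; plants scored three weeks afterwards.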

Apera spica-venti = experiment: Test Example 5: herbicidal effect by foliage application, plastic box (symbol L); settings: 320 g/ha, 3 weeks after application
In short: as §3

Alopecurus myosuroides [2] = experiment: Test Example 4: herbicidal effect by soil treatment (symbol J); settings: application herbicide amount 320 g/ha
In short: (§4)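 Seeds were sown in sterilized diluvial soil, covered with about 1.5 cm of soil, and the soil surface was sprayed with a water-diluted emulsion of the compound at a predetermined rate. Plants grew in a greenhouse at 25° C. to 30° C.; effects were scored visually 3 weeks after application.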

[3] = test system: directly sowed rice plant; experiment: Test Example 3: effect on crop by foliage application, Wagner pot (symbol b); settings: application herbicide amount 320 g/ha
In short: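 Steps: fill a 1/10000-are Wagner pot with alluvial soil; add water and mix to submerge at 0.1–0.5 cm depth; sow rice plus Echinochloa crus-galli var. crus-galli, Leptochloa chinensis and Cyperus difformis; grow in a 25–30 °C greenhouse.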

[4] = test system: Echinochloa oryzacola Vasing.; experiment: Test Example 1: herbicidal activity, application before weed generation in submerged conditions (symbol A); settings: application herbicide amount 320 g/ha
In short: as §1

Galium spurium = experiment: Test Example 5: herbicidal effect by foliage application, plastic box (symbol Q); settings: 320 g/ha, 3 weeks after application
In short: as §3

Abutilon theophrasti = experiment: Test Example 5: herbicidal effect by foliage application, plastic box (symbol M); settings: 320 g/ha, 3 weeks after application
In short: as §3

[5] = test system: Echinochloa crus-galli var. crus-galli; experiment: Test Example 3: herbicidal effect by foliage application, Wagner pot (symbol H); settings: application herbicide amount 320 g/ha
In short: as §2

Stellaria media = experiment: Test Example 5: herbicidal effect by foliage application, plastic box (symbol P); settings: 320 g/ha, 3 weeks after application
In short: as §3

Digitaria ciliaris = experiment: Test Example 4: herbicidal effect by soil treatment (symbol F); settings: application herbicide amount 320 g/ha
In short: as §4

corn = experiment: Test Example 4: effect on crop by soil treatment (symbol c); settings: application herbicide amount 320 g/ha
In short: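 The test used sterilized diluvial soil. Seed was set down in spots and overlaid with about 1.5 cm of soil before growth in a greenhouse kept at 25° C. to 30° C.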

rapeseed = experiment: Test Example 4: effect on crop by soil treatment (symbol g); settings: application herbicide amount 320 g/ha
In short: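 Seeds were sown in spots on sterilized diluvial soil in a plastic box and covered with about 1.5 cm of soil. Plants were then grown in a greenhouse at 25° C. to 30° C.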

wheat = experiment: Test Example 5: effect on crop by foliage application, plastic box (symbol e); settings: 320 g/ha, 3 weeks after application
In short: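 Soil: sterilized diluvial. Container: plastic box, 21 × 13 cm, 7 cm deep. Sowing: spot-like, ~1.5 cm cover. Growth: greenhouse, 25° C. to 30° C.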

Structure (SMILES)	Herbicidal effect grade, B: Scirpus juncoides (Scirpus juncoides)	herbicidal effect on E, grade 0-5 (Cyperus difformis)	herbicidal effect on D (Leptochloa chinensis), grade 0-5 (Leptochloa chinensis)	J: Alopecurus myosuroides, herbicidal effect grade (Alopecurus myosuroides [1])	L: Apera spica-venti, herbicidal effect grade (Apera spica-venti)	J (Alopecurus myosuroides) herbicidal effect grade (Alopecurus myosuroides [2])	effect on crop b (directly sowed rice plant), grade 0-5 [3]	Herbicidal effect grade, A: Echinochloa oryzacola Vasing. [4]	Q: Galium spurium, herbicidal effect grade (Galium spurium)	M: Abutilon theophrasti, herbicidal effect grade (Abutilon theophrasti)	herbicidal effect on H (Echinochloa crus-galli var. crus-galli), grade 0-5 [5]	P: Stellaria media, herbicidal effect grade (Stellaria media)	F (Digitaria ciliaris) herbicidal effect grade (Digitaria ciliaris)	c (corn) effect on crop grade (corn)	g (rapeseed) effect on crop grade (rapeseed)	e: wheat, effect on crop grade (wheat)
CON=C(C)CC1CC(OC(=O)COc2ccccc2)=C(c2c(C)cc(C)cc2C)C1=O (stereo not shown) [1-043]	5 (Herbicidal ratio of 90% or more (almost completely withered))	5 (Herbicidal ratio of 90% or more (almost completely withered))	5 (Herbicidal ratio of 90% or more (almost completely withered))	5 (Herbicidal ratio of 90% or more (almost completely withered))	5 (Herbicidal ratio of 90% or more (almost completely withered))	5 (Herbicidal ratio of 90% or more (almost completely withered))	5 (Herbicidal ratio of 90% or more (almost completely withered))	5 (Herbicidal ratio of 90% or more (almost completely withered))	3 (Herbicidal ratio of 40% or higher and lower than 70%)	4 (Herbicidal ratio of 70% or higher and lower than 90%)	5 (Herbicidal ratio of 90% or more (almost completely withered))	4 (Herbicidal ratio of 70% or higher and lower than 90%)	5 (Herbicidal ratio of 90% or more (almost completely withered))	4 (Herbicidal ratio of 70% or higher and lower than 90%)	5 (Herbicidal ratio of 90% or more (almost completely withered))	5 (Herbicidal ratio of 90% or more (almost completely withered))
CON=C(C)CC1CC(OC(=O)COc2ccc(Cl)cc2)=C(c2c(C)cc(C)cc2C)C1=O (stereo not shown) [1-044]	5 (Herbicidal ratio of 90% or more (almost completely withered))	5 (Herbicidal ratio of 90% or more (almost completely withered))	5 (Herbicidal ratio of 90% or more (almost completely withered))	5 (Herbicidal ratio of 90% or more (almost completely withered))	5 (Herbicidal ratio of 90% or more (almost completely withered))	5 (Herbicidal ratio of 90% or more (almost completely withered))	5 (Herbicidal ratio of 90% or more (almost completely withered))	5 (Herbicidal ratio of 90% or more (almost completely withered))	0 (Herbicidal ratio of 5% or lower (almost no effect))	4 (Herbicidal ratio of 70% or higher and lower than 90%)	5 (Herbicidal ratio of 90% or more (almost completely withered))	0 (Herbicidal ratio of 5% or lower (almost no effect))	5 (Herbicidal ratio of 90% or more (almost completely withered))	4 (Herbicidal ratio of 70% or higher and lower than 90%)	4 (Herbicidal ratio of 70% or higher and lower than 90%)	5 (Herbicidal ratio of 90% or more (almost completely withered))
CON=C(CC1CC(O)=C(c2c(C)cc(C)cc2C)C1=O)c1ccccn1 (stereo not shown) [1-045]	2 (Herbicidal ratio of 20% or higher and lower than 40%)	0 (Herbicidal ratio of 5% or lower (almost no effect))	4 (Herbicidal ratio of 70% or higher and lower than 90%)	5 (Herbicidal ratio of 90% or more (almost completely withered))	5 (Herbicidal ratio of 90% or more (almost completely withered))	0 (Herbicidal ratio of 5% or lower (almost no effect))	3 (Herbicidal ratio of 40% or higher and lower than 70%)	5 (Herbicidal ratio of 90% or more (almost completely withered))	0 (Herbicidal ratio of 5% or lower (almost no effect))	0 (Herbicidal ratio of 5% or lower (almost no effect))	5 (Herbicidal ratio of 90% or more (almost completely withered))	0 (Herbicidal ratio of 5% or lower (almost no effect))	0 (Herbicidal ratio of 5% or lower (almost no effect))	0 (Herbicidal ratio of 5% or lower (almost no effect))	0 (Herbicidal ratio of 5% or lower (almost no effect))	0 (Herbicidal ratio of 5% or lower (almost no effect))
CON=C(CC1CC(O)=C(c2c(C)cc(C)cc2C)C1=O)C1CC1 (stereo not shown) [1-046]	5 (Herbicidal ratio of 90% or more (almost completely withered))	5 (Herbicidal ratio of 90% or more (almost completely withered))	5 (Herbicidal ratio of 90% or more (almost completely withered))	5 (Herbicidal ratio of 90% or more (almost completely withered))	5 (Herbicidal ratio of 90% or more (almost completely withered))	5 (Herbicidal ratio of 90% or more (almost completely withered))	5 (Herbicidal ratio of 90% or more (almost completely withered))	5 (Herbicidal ratio of 90% or more (almost completely withered))	0 (Herbicidal ratio of 5% or lower (almost no effect))	3 (Herbicidal ratio of 40% or higher and lower than 70%)	5 (Herbicidal ratio of 90% or more (almost completely withered))	2 (Herbicidal ratio of 20% or higher and lower than 40%)	5 (Herbicidal ratio of 90% or more (almost completely withered))	4 (Herbicidal ratio of 70% or higher and lower than 90%)	4 (Herbicidal ratio of 70% or higher and lower than 90%)	4 (Herbicidal ratio of 70% or higher and lower than 90%)
